Assay results as given in patent US12264139B2, “Aryl sulfonamides as BLT1 antagonists” (Merck Sharp & Dohme LLC, priority 2015, dated 2025).

These molecules were tested against T1, human BLT1 receptor (Homo sapiens, UniProt Q15722) (assay: BLT-1 cAMP Assay). Details: HEK293 cells recombinantly expressing human BLT1; antagonist activity vs forskolin 4 μM and LTB4 2 nM; cAMP (CisBio kit).
T1 construct: expressed in transfected cells; host or cells: HEK293
T1 sequence (Q15722 whole entry): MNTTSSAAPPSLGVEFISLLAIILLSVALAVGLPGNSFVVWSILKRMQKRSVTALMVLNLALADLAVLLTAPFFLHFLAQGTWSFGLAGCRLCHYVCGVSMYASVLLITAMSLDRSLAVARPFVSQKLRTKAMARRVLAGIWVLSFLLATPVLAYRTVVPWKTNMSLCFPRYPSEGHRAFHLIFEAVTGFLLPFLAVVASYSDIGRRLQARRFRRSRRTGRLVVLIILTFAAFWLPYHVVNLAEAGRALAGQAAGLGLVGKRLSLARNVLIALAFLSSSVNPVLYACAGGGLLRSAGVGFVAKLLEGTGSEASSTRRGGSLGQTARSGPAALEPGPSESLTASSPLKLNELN
Format: cell-based
Description: The ability of compounds to antagonize the human BLT1 receptor was determined using a kit to measure changes in intracellular cyclic AMP levels (cAMP dynamic assay kit, Cisbio Cat. No. 62AM4PEC). […] The cell suspension was centrifuged at 200×g for 10 min and then resuspended in fresh assay medium to a density of 2.5×10^5 cells/mL. […] All subsequent liquid additions were performed using a BIORAPTR (FRD; Beckman Coulter). Next, 5 μL of cell suspension was added and incubated for 20 min. at 37° C. and 5% CO2 in a humidified plastic tray.
The levels of cAMP were detected using the CisBio kit following the manufacturer's instructions: cAMP-d2 vial was reconstituted with distilled water and then diluted accordingly with conjugate & lysis buffer. 5 µL of cAMP-d2 working solution was added to all of the wells of the assay plate. cAMP-Cryptate vial was reconstituted with distilled water and then diluted accordingly with conjugate & lysis buffer. 5 µL of cAMP-Cryptate working solution were added to the assay plate. The assay plate was shaken for 3 minutes and incubated at room temperature for 45 minutes, then read on Perkin Elmer Envision. cAMP standard curve and fit data were plotted using a 4 parameter dose response curve fitting algorithm to fit curve. […] After normalization to treated and untreated controls, the percent effect of signal at each compound concentration was calculated. The plot of percent effect versus the log of compound concentration was fit with a 4-parameter concentration response equation to calculate EC50 values.
`Cc1nc(C[C@@H]2COc3cc(-c4ccccc4NS(=O)(=O)C(F)(F)F)ccc3[C@H]2O)cs1` (single isomer, unassigned) [Example 56, 1,1,1-Trifluoro-N-(2-{(3R,4S or 3S,4R)-4-hydroxy-3-[(2-methyl-1,3-thiazol-4-yl)methyl]-3,4-dihydro-2H-chromen-7-yl}phenyl)-methanesulfonamide] gave an EC50 of 826 nM.
`O=S(=O)(Nc1ccccc1-c1ccc2c(c1)OC[C@H](Cc1csc(-c3ccccc3)n1)[C@H]2O)C(F)(F)F` (single isomer, unassigned) [Example 65, 1,1,1-Trifluoro-N-(2-((3S,4R or 3R,4S)-4-hydroxy-3-((2-phenylthiazol-4-yl)-methyl)chroman-7-yl)-phenyl)methanesulfonamide] was tested, and the EC50 was 47 nM.
Work on `CC(c1ccccn1)C1COc2cc(-c3cc(F)ccc3NS(=O)(=O)C(F)(F)F)ccc2C1O` (single isomer, unassigned) [Example 102, 1,1,1-trifluoro-N-(4-fluoro-2-(4-hydroxy-3-(1-(pyridin-2-yl)ethyl)chroman-7-yl)phenyl) methanesulfonamide] yielded an EC50 of 78 nM.
`O=S(=O)(CC(F)(F)F)Nc1ccccc1-c1ccc2c(c1)OC[C@@H](Cc1ccccn1)[C@@H]2O` (single isomer, unassigned) [Example 80, 2,2,2-Trifluoro-N-(2-((3S,4R or 3R,4S)-4-hydroxy-3-(pyridin-2-ylmethyl)chroman-7-yl)phenyl)ethanesulfonamide] gave an EC50 of 481 nM.
`Cc1nnc(C[C@H]2COc3cc(-c4ccccc4NS(=O)(=O)C(F)(F)F)ccc3[C@@H]2O)s1` (racemic) [Example 23, 1,1,1-Trifluoro-N-(2-{(rac-trans)-4-hydroxy-3-[(5-methyl-1,3,4-thiadiazol-2-yl)methyl]-3,4-dihydro-2H-chromen-7-yl}phenyl)methanesulfonamide] showed an EC50 of 32 nM.
Molecule `CC(c1ccccn1)C1COc2cc(-c3cc(F)ccc3NS(=O)(=O)C(F)(F)F)ccc2C1O` (single isomer, unassigned) [Example 103, 1,1,1-trifluoro-N-(4-fluoro-2-(4-hydroxy-3-(1-(pyridin-2-yl)ethyl)chroman-7-yl)phenyl) methanesulfonamide] has an EC50 of 1310 nM.
For `O=S(=O)(Nc1ccccc1-c1ccc2c(c1)OC[C@@H](Cc1cncs1)[C@@H]2O)C(F)(F)F` (racemic) [Example 9, 1,1,1-Trifluoro-N-(2-((3,4-rac-trans)-4-hydroxy-3-(thiazol-5-ylmethyl)chroman-7-yl)phenyl)methanesulfonamide], the EC50 was 269 nM.
`CC1(S(=O)(=O)Nc2ccccc2-c2ccc3c(c2)OCC(Cc2ccccn2)C3O)CC1` (single isomer, unassigned) [Example 75, N-(2-((3,4-trans)-4-hydroxy-3-(pyridin-2-ylmethyl)chroman-7-yl)phenyl)-1-methylcyclopropane-1-sulfonamide] gave an EC50 of 235 nM.
In the case of `O=S(=O)(Nc1ccccc1-c1ccc2c(c1)OC[C@H](Cc1csc(-c3ccccc3)n1)[C@H]2O)C(F)(F)F` (racemic) [Example 24, 1,1,1-Trifluoro-N-(2-((rac-trans)-4-hydroxy-3-((2-phenylthiazol-4-yl)methyl)chroman-7-yl)phenyl)methanesulfonamide], the EC50 is reported as 329 nM.
Work on `Cn1nccc1CC1COc2cc(-c3ccccc3NS(=O)(=O)C(F)(F)F)ccc2C1O` (racemic) [Example 13, 1,1,1-Trifluoro-N-(2-((3,4-rac-trans)-4-hydroxy-3-((1-methyl-1H-pyrazol-5-yl)methyl)chroman-7-yl)phenyl)methanesulfonamide] yielded an EC50 of 185 nM.
`O=S(=O)(Nc1ccccc1-c1ccc2c(c1)OC[C@@H](Cc1ccc(-c3ccccc3)cc1)[C@@H]2O)C(F)(F)F` (racemic) [Example 4, N-(2-((3,4-Rac-trans)-3-([1,1′-biphenyl]-4-ylmethyl)-4-hydroxychroman-7-yl)phenyl)-1,1,1-trifluoromethanesulfonamide] gave an EC50 of 6 nM.
Molecule `CC(c1ccccn1)C1COc2cc(-c3cc(F)ccc3NS(=O)(=O)C(F)(F)F)ccc2C1O` (single isomer, unassigned) [Example 100, 1,1,1-trifluoro-N-(4-fluoro-2-(4-hydroxy-3-(1-(pyridin-2-yl)ethyl)chroman-7-yl)phenyl) methanesulfonamide] has an EC50 of 72 nM.
`O=S(=O)(CC(F)(F)F)Nc1ncc(C(F)(F)F)nc1-c1ccc2c(c1)OC[C@@H](Cc1ccccn1)[C@@H]2O` (single isomer, unassigned) [Example 88, 2,2,2-Trifluoro-N-(3-((3,4-trans)-4-hydroxy-3-(pyridin-2-ylmethyl)chroman-7-yl)-5-(trifluoromethyl)pyrazin-2-yl)ethanesulfonamide] gave an EC50 of 285 nM.
Molecule `Cn1nc(-c2ccccc2)cc1C[C@H]1COc2cc(-c3ccccc3NS(=O)(=O)C(F)(F)F)ccc2[C@@H]1O` (racemic) [Example 35, 1,1,1-Trifluoro-N-(2-((rac-trans)-4-hydroxy-3-((1-methyl-3-phenyl-1H-pyrazol-5-yl)methyl)chroman-7-yl)phenyl)methanesulfonamide] has an EC50 of 824 nM.
`Cn1nc(-c2ccccc2)cc1C[C@H]1COc2cc(-c3ccccc3NS(=O)(=O)C(F)(F)F)ccc2[C@@H]1O` (single isomer, unassigned) [Example 36, 1,1,1-Trifluoro-N-(2-((3S,4R or 3R,4S)-4-hydroxy-3-((1-methyl-3-phenyl-1H-pyrazol-5-yl)methyl)chroman-7-yl)phenyl)methanesulfonamide] gave an EC50 of 737 nM.
For `O=S(=O)(Nc1ccccc1-c1ccc2c(c1)OC[C@@H](Cc1ccc(-c3ccccc3)cc1)[C@H]2O)C(F)(F)F` (racemic) [Example 3, N-(2-((3,4-Rac-cis)-3-([1,1′-biphenyl]-4-ylmethyl)-4-hydroxychroman-7-yl)phenyl)-1,1,1-trifluoromethanesulfonamide], the EC50 was 2290 nM.
`O=S(=O)(Nc1ccccc1-c1ccc2c(c1)OCC(Cc1ccsc1)C2O)C(F)(F)F` (racemic) [Example 8, 1,1,1-Trifluoro-N-(2-((3,4-rac-trans)-4-hydroxy-3-(thiophen-3-ylmethyl)chroman-7-yl)phenyl)methanesulfonamide] gave an EC50 of 21 nM.
Molecule `O=S(=O)(Nc1ccccc1-c1ccc2c(c1)OC[C@@H](Cc1ncccc1F)[C@@H]2O)C(F)(F)F` (single isomer, unassigned) [Example 69, 1,1,1-Trifluoro-N-(2-{(3,4-trans)-3-[(3-fluoropyridin-2-yl)methyl]-4-hydroxy-3,4-dihydro-2H-chromen-7-yl}phenyl)methanesulfonamide] has an EC50 of 30 nM.
With `O=S(=O)(Nc1nccnc1-c1ccc2c(c1)OCC(Cc1ccccn1)C2O)C(F)(F)F` (racemic) [Example 74, 1,1,1-Trifluoro-N-(3-((3,4-rac-trans)-4-hydroxy-3-(pyridin-2-ylmethyl)chroman-7-yl)pyrazin-2-yl)methanesulfonamide] the EC50 was 4050 nM.
For `O=S(=O)(Nc1nnc(Cl)cc1-c1ccc2c(c1)OC[C@@H](Cc1ccccn1)[C@@H]2O)C(F)(F)F` (single isomer, unassigned) [Example 91, N-(6-chloro-4-((3S,4R or 3R,4S)-4-hydroxy-3-(pyridin-2-ylmethyl)chroman-7-yl)pyridazin-3-yl)-1,1,1-trifluoromethanesulfonamide], the EC50 was 2690 nM.
In the case of `O=S(=O)(Nc1ccccc1-c1ccc2c(c1)OC[C@@H](Cc1cncs1)[C@H]2O)C(F)(F)F` (racemic) [Example 10, 1,1,1-Trifluoro-N-(2-((3,4-rac-cis)-4-hydroxy-3-(thiazol-5-ylmethyl)chroman-7-yl)phenyl)methanesulfonamide], the EC50 is reported as 4540 nM.
`O=S(=O)(Nc1ccccc1-c1ccc2c(c1)OC[C@@H](Cc1ccccn1)[C@@H]2O)C(F)F` (single isomer, unassigned) [Example 81, 1,1-Difluoro-N-(2-((3R,4S or 3S,4R)-4-hydroxy-3-(pyridin-2-ylmethyl)chroman-7-yl)phenyl)methanesulfonamide] gave an EC50 of 15 nM.
In the case of `O=S(=O)(Nc1nnc(Cl)cc1-c1ccc2c(c1)OC[C@H](Cc1ccccn1)[C@H]2O)C(F)(F)F` (single isomer, unassigned) [Example 89, N-(6-chloro-4-((3R,4S or 3S,4R)-4-hydroxy-3-(pyridin-2-ylmethyl)chroman-7-yl)pyridazin-3-yl)-1,1,1-trifluoromethanesulfonamide], the EC50 is reported as 965 nM.
`O=S(=O)(Nc1ccccc1-c1ccc2c(c1)OC[C@H](Cc1cccnn1)[C@H]2O)C(F)(F)F` (racemic) [Example 28, 1,1,1-Trifluoro-N-{2-[(rac-trans)-4-hydroxy-3-(pyridazin-3-ylmethyl)-3,4-dihydro-2H-chromen-7-yl]phenyl}methanesulfonamide] showed an EC50 of 2140 nM.
With `Cc1cnc(C[C@H]2COc3cc(-c4ccccc4NS(=O)(=O)C(F)(F)F)ccc3[C@@H]2O)s1` (single isomer, unassigned) [Example 53, 1,1,1-trifluoro-N-(2-{(3R,4S or 3S,4R)-4-hydroxy-3-[(5-methyl-1,3-thiazol-2-yl)methyl]-3,4-dihydro-2H-chromen-7-yl}phenyl)methanesulfonamide] the EC50 was 69 nM.
With `O=S(=O)(Nc1ccccc1-c1ccc2c(c1)OC[C@H](Cc1cscn1)[C@H]2O)C(F)(F)F` (single isomer, unassigned) [Example 50, 1,1,1-trifluoro-N-{2-[(3R,4S or 3S,4R)-4-hydroxy-3-(1,3-thiazol-4-ylmethyl)-3,4-dihydro-2H-chromen-7-yl]phenyl}-methanesulfonamide] the EC50 was 29 nM.
